The source of these data is publication PMC4109950, “Novel Small Molecule XPO1/CRM1 Inhibitors Induce Nuclear Accumulation of TP53, Phosphorylated MAPK and Apoptosis in Human Melanoma Cells” (PLoS ONE, 2014).

Molecules are shown by their SMILES.

Data set [1] has as its system A375. Kind of data set: Cellular growth assay (MTS), 72 h. Type of data set: cell-based, human. As to conditions: Homo sapiens, A-375, 72 h, A375, 72 hr treatment, read-out: Growth Inhibition IC50. Here is the method: (§1) Cells were seeded in 96-well plates (2×10^4) in triplicate and allowed to adhere overnight. Fresh media containing KPT-185, KPT-185-trans, KPT-276, or KPT-330 was added to each well at various concentrations (range = 40–10240 nM) and cells were incubated at 37°C/5% CO2 for 72 hours. Cells treated with DMSO (diluent) and untreated cells served as controls. At this time, the percentage of cell growth was evaluated using the MTS assay (CellTiter 96 AQueous Non-Radioactive Cell Proliferation Assay, Promega) and quantified by determining the optical density at 595 nm using a Bio-Rad iMark™ microplate reader. The 4-parameter logistic or Hill model was the assumed dose-response relationship for the in vitro inhibition and cell viability experiments. Nonlinear least squares regression was used to estimate the model parameters and generate 95% confidence intervals for the IC50 estimates. For in vivo experiments, tumor volumes were first log-transformed to meet test assumptions of normality and homoscedasticity. Changes in tumor volumes were analyzed using a two-sample t-test to evaluate the difference from first day of treatment to the last for A375 xenografts (day 17), and from day 1 to day 10 for CHL-1 xenografts as day 10 marks the first mouse sacrificed when 1500 mm^3 tumor volume was reached. ANOVA was used to compare the expression of XPO1 staining among samples from the melanoma tissue core array. The Wilcoxon rank-sum test was used to analyze data comparing growth inhibition and apoptosis of the five metastatic melanoma cell lines to the three melanocyte cell lines.

For data set [2], the system named is CHL-1. Kind of data set: Cellular growth assay (MTS), 72 h. Type of data set: cell-based, human. The protocol: as §1
In data set [3] the test system is A375. As to the kind of experiment: Apoptosis via Annexin V/PI staining, flow cytometry. As to conditions: Homo sapiens, A-375, A375, 72 hr treatment. Type of data set: cell-based. The protocol: (§2) Phosphatidyl serine exposure was assessed in tumor cells and melanocytes by flow cytometry using APC-Annexin V and propidium iodide (PI; BD Pharmingen, San Diego, CA) as previously described. Each analysis was performed utilizing at least 10,000 events. We considered the Annexin V positive cells (early apoptosis) and Annexin V/PI double positive cells (late apoptosis) cells as the apoptotic cell population. The 4-parameter logistic or Hill model was the assumed dose-response relationship for the in vitro inhibition and cell viability experiments. Nonlinear least squares regression was used to estimate the model parameters and generate 95% confidence intervals for the IC50 estimates. For in vivo experiments, tumor volumes were first log-transformed to meet test assumptions of normality and homoscedasticity. Changes in tumor volumes were analyzed using a two-sample t-test to evaluate the difference from first day of treatment to the last for A375 xenografts (day 17), and from day 1 to day 10 for CHL-1 xenografts as day 10 marks the first mouse sacrificed when 1500 mm^3 tumor volume was reached. ANOVA was used to compare the expression of XPO1 staining among samples from the melanoma tissue core array. The Wilcoxon rank-sum test was used to analyze data comparing growth inhibition and apoptosis of the five metastatic melanoma cell lines to the three melanocyte cell lines.

The test system of data set [4] is CHL-1. Described as above. Type of data set: cell-based. The settings on record: Homo sapiens, CHL-1, 72 hr treatment. Here is the method:
as §2

In data set [5] the test system is human A375 melanoma xenografts. Kind of data set: Subcutaneous melanoma xenograft tumor growth. Type of data set: in vivo, NOD/SCID mice. As to conditions: oral gavage three times weekly, KPT-276 75 mg/kg or KPT-330 15 mg/kg, p<0.0001 for both. Here is the method: (§3) All animal studies were conducted under a protocol (2009A0178-R1) approved by The Ohio State University Institutional Animal Care and Use Committee (IACUC). A subcutaneous (s.c.) tumor model of melanoma was employed to determine whether treatment with the orally bioavailable SINE compounds, KPT-276 (preclinical tool compound) or KPT-330 (currently in Phase 1 studies in humans with advanced cancers), would be effective in decreasing tumor growth in vivo. Female NOD/SCID mice (n = 6 mice/group; 6-8 weeks of age; Jackson Laboratory, Bar Harbor, ME) were injected subcutaneously (s.c.) in the right flank with 2×10^6 human A375 or CHL-1 melanoma cells (Day 0). Once tumors were palpable, mice were randomized to one of […] treatment groups: [a] diluent, [b] KPT-276 (75 mg/kg), or [c] KPT-330 (15 mg/kg). All treatments were administered via oral gavage in a volume of 200 µL three times weekly (Monday, Wednesday, Friday). Bi-dimensional tumor measurements were obtained three times weekly using microcalipers. Mice were euthanized and tumors were collected from all animals once diluent-treated tumors reached a volume of 1500 mm^3. For histology studies, a subset of animals (n = 2–3/group) were treated with diluents, KPT-276, or KPT-330 for one week, after which tumors were collected to avoid necrosis. The weights of all animals receiving diluent, KPT-276 or KPT-330 were monitored for dosing and to assess toxicity throughout the study.
as §2, with “The” for “Phosphatidyl serine exposure was assessed in tumor cells and melanocytes by flow cytometry using APC-Annexin V and propidium iodide (PI; BD Pharmingen, San Diego, CA) as previously described. Each analysis was performed utilizing at least 10,000 events. We considered the Annexin V positive cells (early apoptosis) and Annexin V/PI double positive cells (late apoptosis) cells as the apoptotic cell population. The”

The subject of data set [6] is human CHL-1 melanoma xenografts. As to the kind of experiment: Subcutaneous melanoma xenograft tumor growth. Type of data set: in vivo, NOD/SCID mice. As to conditions: CHL-1 xenograft, oral gavage three times weekly, KPT-276 75 mg/kg (p = 0.0087) or KPT-330 15 mg/kg (p = 0.0002). Here is the method:
as §3
as §2, with “The” for “Phosphatidyl serine exposure was assessed in tumor cells and melanocytes by flow cytometry using APC-Annexin V and propidium iodide (PI; BD Pharmingen, San Diego, CA) as previously described. Each analysis was performed utilizing at least 10,000 events. We considered the Annexin V positive cells (early apoptosis) and Annexin V/PI double positive cells (late apoptosis) cells as the apoptotic cell population. The”

Data set [7] is described as follows: Body weight of tumor-bearing mice during oral treatment. Type of data set: in vivo, NOD/SCID mice. The settings on record: oral treatment three times weekly, KPT-276 75 mg/kg or KPT-330 15 mg/kg, n = 6. The protocol: as §3, with “For histology studies, a subset of animals (n = 2–3/group) were treated with diluents, KPT-276, or KPT-330 for one week, after which tumors were collected to avoid necrosis.” left out

The subject of data set [8] is A375 xenografts. As to the kind of experiment: Immunohistochemical staining of xenografts. Type of data set: in vivo, NOD/SCID mice. As to conditions: treated one week. Here is the method: as §3
(§4) For analysis of XPO1 expression in human samples, an unstained (5 µm) slide of a commercially available tissue microarray (1 mm cores) containing 56 cases of primary melanoma, 20 cases of metastatic melanoma, and 24 cases diagnosed as nevus (US Biomax, Inc., Catalog #ME1004a) was subjected to immunohistochemical analysis using an antibody targeting XPO1 (Santa Cruz H-300, sc-5595, lot # D0110) according to manufacturer's recommendations (1∶50). For mouse studies, tumor xenografts were fixed in formalin, embedded in paraffin, a sectioned at 4 µm with two sections per slide. […] All samples were analyzed in a blinded fashion by an experienced pathologist (Dr. Krista La Perle). Automatic quantification of immunoreactivity in viable portions of xenograft tissue samples and tissue cores segmented with the TMA Lab (Aperio Technologies, Vista, CA) was performed on whole slide images scanned at 40× magnification (ScanScope XT, Aperio Technologies) using the Positive Pixel Count Algorithm in the ImageScope software, as well as the Color Deconvolution and Cytoplasmic algorithms available in the Image Analysis Toolbox (Aperio Technologies).

The subject of data set [9] is CHL-1 xenografts. Kind of data set: Immunohistochemical staining of xenografts. Type of data set: in vivo, NOD/SCID mice. As to conditions: treated one week. The protocol: as §3, §4
On the set-up of data set [10]: method as in personal communication, Karyopharm Therapeutics, Inc. The settings on record: CD1 mice, oral, 10 mg/kg; ref personal communication, Karyopharm Therapeutics, Inc.; cited from earlier work.
Data set [11] deals with A375 and CHL-1 cell lines. As to the kind of experiment: Immunoblot of TP53, CDKN1A after etoposide. Type of data set: cell-based, human. As to conditions: 20 µM etoposide, 24 hours. Here is the method: Human melanoma cell lines were seeded in 6-well plates (2×10^5) and allowed to adhere overnight. After treatment for various time points, the cells were harvested then fractionated using NE-PER Nuclear and Cytoplasmic Extraction Reagents from Thermo Scientific following the manufacturer's protocol. Nuclear and cytoplasmic fractions were validated via immunoblot analysis using Lamin B and GAPDH antibodies.
Immunoblots were prepared as previously described and probed with antibodies specific for TP53, CDKN1A (p21), XPO1, HDM2 (MDM2), Lamin B (Santa Cruz Biotechnology, Santa Cruz, CA), pMAPK, PARP (Cell Signaling Technology), GAPDH or β-actin (Sigma). Following incubation with the appropriate horseradish peroxidase-conjugated secondary antibody, immune complexes were detected using the ECL Plus detection kit (Amersham Biosciences, Ayesbury, UK).
Supplementary file pone.0102983.s001.tif: Figure S1 Localization of TP53, CDKN1A, and pMAPK in melanoma cell lines with etoposide. A375 and CHL-1 cell lines were treated with 20 µM of etoposide and harvested after 24 hours of treatment. Lysates were evaluated via immunoblot analysis. Lamin B and GAPDH serve as loading controls for nuclear and cytoplasmic compartments respectively. The data shown are representative of 2 to 3 independent biological experiments. (TIF) Click here for additional data file.

A word on the IC50: it is the concentration needed to halve the response being measured. The term Tmax denotes the time from dosing to the highest level. Turning to `O=C(/C=C\n1cnc(-c2cc(C(F)(F)F)cc(C(F)(F)F)c2)n1)N1CC(F)(F)C1` [KPT-276], the IC50 in data set [1] is 321 nM; in data set [3] it was 233 nM; in data set [4], 6.13 µM. In addition, in [2] (CHL-1, 72 hours), the “IC57 value (cytostatic effect)” value was 3.8794 µM. Also, the “Tumor growth vs diluent” value in data set [5] and in data set [6] was “significantly inhibited growth” in each case. In addition, the “Body weights of mice during treatment” value in [7] was “remained constant”. The Ki67 staining result in data set [8] and in data set [9] was “No significant changes” each time. Further, in data set [8] (n = 3 vs 2), the “Levels of nuclear TP53 and pMAPK (IHC)” value is “trend towards increased levels”. In [9] (high basal expression), the “TP53 expression (IHC)” value is given as “did not change”. In addition, the Bioavailability in data set [10] was above 90%. In addition, the “Level at Tmax” value in [10] is listed as “roughly 2.5 micromolar”. For the same compound, the Tmax in data set [10] was 60 min.
With `O=C(/C=C\n1cnc(-c2cc(C(F)(F)F)cc(C(F)(F)F)c2)n1)NNc1cnccn1` [KPT-330], the 50% inhibitory concentration (IC50) in data set [1] amounted to 120 nM; in data set [2] (Homo sapiens, CHL-1, 72 hr treatment, read-out: Growth Inhibition IC50), 7.53 µM; in [3], 112 nM; in data set [4], 7.69 µM. Further, the “Tumor growth vs diluent” value in data set [5] and in [6] was “significantly inhibited” throughout. Besides, the “Body weights of mice during treatment” value in [7] is “remained constant”. Moreover, the Bioavailability in data set [10] is around 60%. The “Level at Tmax” value in data set [10] is “roughly 2.5 micromolar”. In addition, the Tmax in data set [10] is 30 min.
In the case of `COc1cc([C@@H]2c3cc4c(cc3[C@@H](O[C@@H]3O[C@@H]5CO[C@@H](C)O[C@H]5[C@H](O)[C@H]3O)[C@H]3COC(=O)[C@H]23)OCO4)cc(OC)c1O` [etoposide, Etoposide], in data set [11], the “TP53 upregulation and downstream activation of CDKN1A” value is listed as “induced TP53 upregulation”.
